In patent publication US9326513B2, “Fungicidal compositions” (Syngenta Participations AG, priority 2011, dated 2016):

Assays:
Format in all cases: in vivo
Settings in all cases: foliar, compared to untreated control leaf disks, read-out: disease control
[1] = system: Puccinia recondita f. sp. tritici; test: Puccinia recondita f. sp. tritici / wheat / leaf disc curative (brown rust)
Description: Puccinia recondita f. sp. tritici/Wheat/Leaf Disc Curative (Brown Rust) Wheat leaf segments cv. Kanzler are placed on agar in multiwell plates (24-well format). The leaf segments are inoculated with a spore suspension of the fungus. Plates were stored in darkness at 19° C. and 75% rh. The formulated test compound diluted in water was applied 1 day after inoculation.

[2] = system: Blumeria graminis f. sp. tritici (Erysiphe graminis f. sp. tritici); test: Blumeria graminis f. sp. tritici / wheat / leaf disc preventative (powdery mildew on wheat)
How it was run: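 Preventative leaf-disc test: compound (200 ppm) was sprayed onto cv. Kanzler wheat segments, which were dusted with conidia from infected plants 1 day after application. After incubation at 20° C and 60% rh, disease control relative to untreated segments was rated 6-8 days after application.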

Pyrenophora teres = Pyrenophora teres / barley / leaf disc preventative (net blotch)
Excerpt: Pyrenophora teres/Barley/Leaf Disc Preventative (Net Blotch) Barley leaf segments cv. Hasso were placed on agar in a multiwell plate (24-well format) and sprayed with the formulated test compound diluted in water. The leaf segments were inoculated with a spore suspension of the fungus 2 days after application.

[3] = system: Puccinia recondita f. sp. tritici; test: Puccinia recondita f. sp. tritici / wheat / leaf disc preventative (brown rust)
Excerpt: Puccinia recondita f. sp. tritici/Wheat/Leaf Disc Preventative (Brown Rust) Wheat leaf segments cv. Kanzler were placed on agar in multiwell plates (24-well format) and sprayed with the formulated test compound diluted in water. The leaf disks were inoculated with a spore suspension of the fungus 1 day after application.

Measured: pest or weed control at 200 ppm

CCN(C)/C=N/c1cc(C)c(OC(C)c2cc(F)cc(F)c2)nc1C (stereo not shown) [Q.184]
≥ 50%: [1] | [2] | Pyrenophora teres | [3]

CCN(C)/C=N/c1cc(Br)c(OCc2ccc(C)cc2C)nc1C [Q.324]
≥ 50%: [1] | [2] | Pyrenophora teres | [3]

CCN(C)/C=N/c1cc(OC)c(O[C@H]2CC[C@@H](C(C)C)CC2)nc1C [Q.248]
≥ 50%: [1] | [2] | Pyrenophora teres | [3]

CCN(C)/C=N/c1cc(Br)c(OCCCCc2ccc(Br)cc2)nc1C [Q.047]
≥ 50%: [1] | [2] | Pyrenophora teres | [3]

CCN(C)/C=N/c1cc(Br)c(OC(C)CC(C)C)nc1C (stereo not shown) [Q.392]
≥ 50%: [1] | [2] | Pyrenophora teres | [3]

CCN(C)/C=N/c1cc(Br)c(OC2CCC(=O)C=C2C)nc1C (stereo not shown) [Q.282]
≥ 50%: [1] | [2] | Pyrenophora teres | [3]

CCN(C)/C=N/c1cc(Br)c(OCc2ccccc2C(F)F)nc1C [Q.289]
≥ 50%: [1] | [2] | Pyrenophora teres | [3]

CCN(C)/C=N/c1cc(Br)c(OCc2snc(-c3ccc(F)cc3)c2Cl)nc1C [Q.124]
≥ 50%: [1] | [2] | Pyrenophora teres | [3]

CCN(C)/C=N/c1cc(Br)c(OCC#Cc2cccc(OC)c2)nc1C [Q.020]
≥ 50%: [1] | [2] | Pyrenophora teres | [3]

CCN(C)/C=N/c1cc(Br)c(OC2CCc3ccccc3C2)nc1C (stereo not shown) [Q.110]
≥ 50%: [1] | [2] | Pyrenophora teres | [3]

CCN(C)/C=N/c1cc(Br)c(OCCc2ccc(C)cc2)nc1C [Q.364]
≥ 50%: [1] | [2] | Pyrenophora teres | [3]

CCN(C)/C=N/c1cc(Br)c(OC(C)c2cc(-c3ccccc3)no2)nc1C (stereo not shown) [Q.075]
≥ 50%: [1] | [2] | Pyrenophora teres | [3]

CCN(C)/C=N/c1cc(Br)c(O[C@@H](C)c2cc(F)cc(F)c2)nc1C [Q.260]
≥ 50%: [1] | [2] | Pyrenophora teres | [3]

CCN(C)/C=N/c1cc(Br)c(OC(C)C2CCc3ccccc3C2)nc1C (stereo not shown) [Q.225]
≥ 50%: [1] | [2] | Pyrenophora teres | [3]

CCN(C)/C=N/c1cc(Br)c(OCc2cc(F)cc(F)c2)nc1C [Q.105]
≥ 50%: [1] | [2] | Pyrenophora teres | [3]

CCN(C)/C=N/c1cc(Br)c(OCCc2ccc(OC)cc2)nc1C [Q.011]
≥ 50%: [1] | [2] | Pyrenophora teres | [3]

CCN(C)/C=N/c1ccc(OC(C)Cc2ccccc2C)nc1C (stereo not shown) [Q.354]
≥ 50%: [1] | [2] | Pyrenophora teres | [3]

Cc1nc(OC2CCC3(CC2)OCCO3)c(Br)cc1/N=C/N(C)C [Q.054]
≥ 50%: [1] | [2] | Pyrenophora teres | [3]

CCN(C)/C=N/c1cc(Br)c(OC(C)c2ccncc2)nc1C (stereo not shown) [Q.117]
≥ 50%: [1] | [2] | Pyrenophora teres | [3]

CCN(C)/C=N/c1cc(Br)c(OC2CCOCC2)nc1C [Q.244]
≥ 50%: [1] | [2] | Pyrenophora teres | [3]

CCN(C)/C=N/c1cc(Br)c(OCc2ccccc2)nc1C [Q.095]
≥ 50%: [1] | [2] | Pyrenophora teres | [3]

CCN(C)/C=N/c1cc(Br)c(OCCCc2ccc(OC)cc2)nc1C [Q.014]
≥ 50%: [1] | [2] | Pyrenophora teres | [3]

CCN(C)/C=N/c1cc(C2CC2)c(OC2Cc3cc(OC)c(OC)cc3C2)nc1C [Q.069]
≥ 50%: [1] | [2] | Pyrenophora teres | [3]

CCN(C)/C=N/c1cc(Br)c(OCCC2CC2)nc1C [Q.222]
≥ 50%: [1] | [2] | Pyrenophora teres | [3]

C#Cc1cc(/N=C/N(C)CC)c(C)nc1O[C@H]1CC[C@@H](C(C)C)CC1 [Q.250]
≥ 50%: [1] | [2] | Pyrenophora teres | [3]

CCN(C)/C=N/c1cc(Br)c(OCCc2ccccc2)nc1C [Q.099]
≥ 50%: [1] | [2] | Pyrenophora teres | [3]

CCN(C)/C=N/c1cc(Br)c(OC(C)CCC2CC2)nc1C (stereo not shown) [Q.357]
≥ 50%: [1] | [2] | Pyrenophora teres | [3]

C=Cc1cccc(COc2nc(C)c(/N=C/N(C)CC)cc2Br)c1 [Q.277]
≥ 50%: [1] | [2] | Pyrenophora teres | [3]

CCN(C)/C=N/c1cc(Br)c(OCCCc2ccc(F)cc2)nc1C [Q.131]
≥ 50%: [1] | [2] | Pyrenophora teres | [3]

CCN(C)/C=N/c1ccc(O[C@H]2CC[C@H](CC)CC2)nc1C [Q.380]
≥ 50%: [1] | [2] | Pyrenophora teres | [3]

CCN(C)/C=N/c1cc(Br)c(OCC[C@H]2CC[C@@H](O)CC2)nc1C [Q.005]
≥ 50%: [1] | [2] | Pyrenophora teres | [3]

CCN(C)/C=N/c1cc(C(F)F)c(OC(C)c2cc(F)cc(F)c2)nc1C (stereo not shown) [Q.215]
≥ 50%: [1] | [2] | Pyrenophora teres | [3]

CCN(C)/C=N/c1cc(Br)c(OC2Cc3cc(C)c(C)cc3C2)nc1C [Q.197]
≥ 50%: [1] | [2] | Pyrenophora teres | [3]

CCN(C)/C=N/c1cc(Br)c(OC2CCN(C(C)=O)CC2)nc1C [Q.160]
≥ 50%: [1] | [2] | Pyrenophora teres | [3]
